{"source": "paper PMC11808136", "about": "“Screening and identification of host signaling pathways for alleviating influenza-induced production of pro-inflammatory cytokines, IP-10, IL-8, and MCP-1, using a U937 cell-based influenza model” (Frontiers in Microbiology, 2025)", "key": {"JAK1": {"biological_target": "JAK1 (Homo sapiens, UniProt P23458)", "sequence (P23458 whole entry)": "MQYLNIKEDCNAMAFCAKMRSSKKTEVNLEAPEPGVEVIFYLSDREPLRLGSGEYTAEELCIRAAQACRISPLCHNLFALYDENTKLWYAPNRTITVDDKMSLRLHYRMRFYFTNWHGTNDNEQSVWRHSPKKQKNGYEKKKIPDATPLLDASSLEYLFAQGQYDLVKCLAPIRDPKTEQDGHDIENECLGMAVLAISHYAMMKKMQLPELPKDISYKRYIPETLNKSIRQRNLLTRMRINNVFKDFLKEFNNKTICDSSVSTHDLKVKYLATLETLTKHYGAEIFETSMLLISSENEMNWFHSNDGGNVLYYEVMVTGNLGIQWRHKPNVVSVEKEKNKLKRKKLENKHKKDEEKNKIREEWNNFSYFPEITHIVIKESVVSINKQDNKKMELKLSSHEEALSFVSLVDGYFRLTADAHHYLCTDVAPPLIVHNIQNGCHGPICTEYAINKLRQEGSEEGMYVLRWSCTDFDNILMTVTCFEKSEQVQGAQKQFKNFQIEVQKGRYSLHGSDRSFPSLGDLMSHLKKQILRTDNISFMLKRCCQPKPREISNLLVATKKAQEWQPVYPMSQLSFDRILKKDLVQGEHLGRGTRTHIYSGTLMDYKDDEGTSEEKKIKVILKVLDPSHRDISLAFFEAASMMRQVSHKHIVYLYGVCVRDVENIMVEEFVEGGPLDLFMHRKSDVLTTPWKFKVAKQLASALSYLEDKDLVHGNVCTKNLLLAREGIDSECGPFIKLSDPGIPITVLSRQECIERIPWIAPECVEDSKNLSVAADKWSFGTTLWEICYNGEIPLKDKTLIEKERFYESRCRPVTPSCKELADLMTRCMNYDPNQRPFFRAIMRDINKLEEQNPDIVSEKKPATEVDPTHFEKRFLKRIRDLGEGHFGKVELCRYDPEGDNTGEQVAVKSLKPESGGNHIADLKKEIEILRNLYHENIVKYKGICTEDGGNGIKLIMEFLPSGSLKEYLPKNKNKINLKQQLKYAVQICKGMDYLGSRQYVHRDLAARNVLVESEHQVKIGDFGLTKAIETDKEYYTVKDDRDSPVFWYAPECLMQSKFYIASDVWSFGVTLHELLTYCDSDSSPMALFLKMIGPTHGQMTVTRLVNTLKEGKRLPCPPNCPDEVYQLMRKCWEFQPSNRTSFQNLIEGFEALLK", "experiment": "Cell-free kinase activity assay, JAK1", "settings": "cell-free kinase assay"}, "[1]": {"test_system": "IP-10 production in influenza virus-infected U937 cells (H7N8)", "experiment": "cells", "assay_type": "cell-based, Human", "settings": "Homo sapiens, U-937, read-out: EC50 IP-10"}, "[2]": {"test_system": "MCP-1 production in influenza virus-infected U937 cells (H1N1)", "experiment": "cells", "assay_type": "cell-based", "settings": "Homo sapiens; for EC50: read-out: EC50 MCP-1"}, "[3]": {"test_system": "IL-8 production in influenza virus-infected U937 cells (H7N8)", "experiment": "cells", "assay_type": "cell-based, Human", "settings": "Homo sapiens, U-937, read-out: EC50 IL-8"}, "[4]": {"test_system": "MCP-1 production in influenza virus-infected U937 cells (H3N2)", "experiment": "cells", "assay_type": "cell-based, Human", "settings": "Homo sapiens, U-937"}, "[5]": {"test_system": "STAT3 phosphorylation (p-STAT3)", "experiment": "Western blot of phosphorylated STAT3 in influenza-infected U937 cells", "assay_type": "cell-based, Human", "settings": "1 μM ponatinib, 24 h", "experimental": "Figure 3 JAK is essential for regulating the production of pro-inflammatory cytokines induced by influenza infection in U937 cells. Inhibition rates on IL-8 (A), IP-10 (B), and MCP-1 (C) by each compound in the PTK group are categorized based on targets. […] The cells were then lysed after 24 h incubation at 37°C, and the levels of phosphorylated STAT1 (p-STAT1), total STAT1, phosphorylated STAT3 (p-STAT3), and total STAT3 were assessed by western blot.\n(§1) Cells were homogenized in RIPA lysis buffer containing a 1% protease inhibitor cocktail (Roche) to extract total protein. Equal amounts of protein homogenates were separated by SDS-PAGE (Bio-Rad) and transferred onto polyvinylidene difluoride membranes (pore size […]; Bio-Rad). The membranes were then blotted with monoclonal antibodies against GAPDH (1:1000, ZSGB-BIO), p38, phosphor-p38, ERK, phospho-ERK, STAT1, phosphor-STAT1 (1:1000; Cell Signaling Technology), STAT3, and phosphor-STAT3 (1:1000; Cell Signaling Technology), respectively. Protein levels were detected with horseradish peroxidase-tagged secondary antibodies and enhanced chemiluminescence western blot reagents (Advansta), followed by visualization using an enhanced chemiluminescence system (AlphaEase FluorChem System, Alpha Innotech Corp.). Bands were quantified using ImageJ (Ver. 1.46; NIH, Bethesda, MD)."}, "[6]": {"test_system": "MCP-1 production in influenza virus-infected U937 cells (H7N8)", "experiment": "cells", "assay_type": "cell-based, Human", "settings": "Homo sapiens, U-937, read-out: EC50 MCP-1"}, "[7]": {"test_system": "IL-8 production in influenza virus-infected U937 cells (H1N1)", "experiment": "cells", "assay_type": "cell-based, Human", "settings": "Homo sapiens; for EC50: read-out: EC50 IL-8"}, "[8]": {"test_system": "IP-10 production in influenza virus-infected U937 cells (H3N2)", "experiment": "cells", "assay_type": "cell-based, Human", "settings": "Homo sapiens, U-937"}, "JAK2": {"biological_target": "T1, JAK2 (Homo sapiens, UniProt O60674)", "T1 construct": "purchased KinaseProfiler (Eurofin, Brussels, Belgium)", "T1 sequence (O60674 whole entry)": "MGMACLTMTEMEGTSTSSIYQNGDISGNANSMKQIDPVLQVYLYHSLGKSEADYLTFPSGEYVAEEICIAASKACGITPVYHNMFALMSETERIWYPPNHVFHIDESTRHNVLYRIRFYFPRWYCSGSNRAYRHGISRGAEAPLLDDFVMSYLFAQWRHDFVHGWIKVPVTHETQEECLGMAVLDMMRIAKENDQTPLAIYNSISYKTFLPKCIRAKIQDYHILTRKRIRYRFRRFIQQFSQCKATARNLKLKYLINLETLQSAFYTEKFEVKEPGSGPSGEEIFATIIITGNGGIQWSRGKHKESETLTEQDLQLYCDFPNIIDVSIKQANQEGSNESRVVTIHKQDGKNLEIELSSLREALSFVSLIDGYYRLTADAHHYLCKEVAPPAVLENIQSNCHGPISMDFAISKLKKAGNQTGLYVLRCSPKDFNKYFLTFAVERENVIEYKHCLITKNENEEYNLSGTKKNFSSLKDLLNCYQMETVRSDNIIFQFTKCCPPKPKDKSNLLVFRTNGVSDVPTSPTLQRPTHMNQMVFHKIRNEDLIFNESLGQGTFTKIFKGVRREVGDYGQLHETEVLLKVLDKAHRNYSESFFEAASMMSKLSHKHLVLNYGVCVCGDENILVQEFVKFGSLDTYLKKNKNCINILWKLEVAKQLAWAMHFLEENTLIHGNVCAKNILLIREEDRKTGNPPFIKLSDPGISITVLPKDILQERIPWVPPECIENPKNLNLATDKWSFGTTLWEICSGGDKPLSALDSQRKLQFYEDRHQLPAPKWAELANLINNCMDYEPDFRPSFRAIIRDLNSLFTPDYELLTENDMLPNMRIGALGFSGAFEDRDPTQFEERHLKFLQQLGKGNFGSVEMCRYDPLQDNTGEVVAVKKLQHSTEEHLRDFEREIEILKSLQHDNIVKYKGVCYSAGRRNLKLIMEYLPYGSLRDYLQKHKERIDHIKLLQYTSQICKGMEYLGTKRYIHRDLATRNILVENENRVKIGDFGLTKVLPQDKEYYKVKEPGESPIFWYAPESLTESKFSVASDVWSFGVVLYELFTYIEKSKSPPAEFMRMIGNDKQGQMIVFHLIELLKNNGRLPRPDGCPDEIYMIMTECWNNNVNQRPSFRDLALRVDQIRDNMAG", "experiment": "Cell-free kinase activity assay, JAK2", "assay_type": "biochemical", "settings": "cell-free kinase assay"}, "[9]": {"test_system": "IP-10 production in influenza virus-infected U937 cells (H1N1)", "experiment": "cells", "assay_type": "cell-based", "settings": "Homo sapiens; for EC50: read-out: EC50 IP-10"}, "[10]": {"test_system": "IL-8 production in influenza virus-infected U937 cells (H3N2)", "experiment": "cells", "assay_type": "cell-based, Human", "settings": "Homo sapiens, U-937"}, "[11]": {"test_system": "phosphorylation of p38 (p-p38)", "experiment": "Western blot of phosphorylated p38 in influenza-infected U937 cells", "assay_type": "cell-based, Human", "settings": "Homo sapiens, U-937, read-out: IC50 p-p38", "experimental": "(§2) Figure 6 TKIs repress cytokine production by suppressing the p38 pathway. […] Cells were lysed 24 h post-infection, and the levels of phosphorylated p38 and ERK (p-p38 and p-ERK) and total p38 and ERK were assessed by western blot. A quantification of phosphorylated p38 levels for each drug treatment was included in the right panel of each figure.\nas §1"}, "[12]": {"test_system": "STAT1 phosphorylation (p-STAT1)", "assay_type": "cell-based, Human"}, "U937 cells": {"test_system": "U937 cells", "settings": "human"}, "[13]": {"test_system": "influenza virus infection", "set-up": "method as in Florence et al., 2018; Chen et al., 2019", "settings": "without compromising viral titers; ref Florence et al., 2018; Chen et al., 2019; cited from earlier work"}, "[14]": {"test_system": "ERK phosphorylation (p-ERK)", "experiment": "Western blot of phosphorylated ERK in influenza-infected U937 cells", "assay_type": "cell-based, Human", "settings": "24 h post-infection, western blot", "experimental": "Figure 5 Raf/MEK/ERK and p38 signal pathways are involved in the regulation of cytokines in U937 cells. (A–C) Determination of inhibition rates on IL-8, IP-10, and MCP-1 by each compound in the MAPK group and the distribution of targets between subgroups. U937 cells were infected with influenza A/PuertoRico/8/1934 virus (MOI = 0.1) in the presence of 10 μM of each inhibitor and then incubated at 37°C for 48 h. The distribution of the targets of all the inhibitors in the MAPK group was then analyzed and categorized into subgroups. […] The supernatants were harvested 48 h post-infection, and the levels of IL-8, MCP-1, and IP-10 were measured by AlphaLISA. (E) The cells were treated as in (C) except being lysed 24 h post-infection, and the levels of phosphorylated STAT1, p38, ERK (p-STAT1, p-p38, p-ERK), total STAT1, p38, ERK, and viral protein HA were assessed by western blot. (F) A quantitative analysis of the relative levels of the phosphorylated STAT1, p38, ERK (p-STAT1, p-p38, p-ERK) in (E). The data are representative of at least three independent experiments. n.s. no significance; *p < 0.05; **p < 0.01; ***p < 0.001.\nas §2\nas §1, with “The membranes were then blotted with monoclonal antibodies against GAPDH (1:1000, ZSGB-BIO), p38, phosphor-p38, ERK, phospho-ERK, STAT1, phosphor-STAT1 (1:1000; Cell Signaling Technology), STAT3, and phosphor-STAT3 (1:1000; Cell Signaling Technology), respectively.” left out"}, "[15]": {"settings": "U-937, secondary screen, Supplemental Table 1"}}, "note": "Read-outs that look alike come from different tables or passages of the source.", "data": [{"molecule": "Cc1ccc(C(=O)Nc2ccc(CN3CCN(C)CC3)c(C(F)(F)F)c2)cc1C#Cc1cnc2cccnn12", "note": "[Ponatinib]", "values": [{"measurement": "JAK1 activity", "setting": "JAK1", "result": "directly inhibit"}, {"measurement": "EC50", "setting": "[1]", "result": 0.833, "unit": "µM"}, {"measurement": "EC50", "setting": "[2]; [15]", "result": "< 0.005", "unit": "µM"}, {"measurement": "EC50", "setting": "[2]; U-937", "result": 0.385, "unit": "µM"}, {"measurement": "IC50", "setting": "[2]; U-937, read-out: IC50 MCP-1", "result": 0.4, "unit": "µM"}, {"measurement": "EC50", "setting": "[3]", "result": 0.833, "unit": "µM"}, {"measurement": "EC50", "setting": "[4]", "result": 0.625, "unit": "µM"}, {"measurement": "STAT3 phosphorylation", "setting": "[5]", "result": "limited inhibition"}, {"measurement": "EC50", "setting": "[6]", "result": 0.345, "unit": "µM"}, {"measurement": "IC50", "setting": "[7]; U-937", "result": 0.3, "unit": "µM"}, {"measurement": "EC50", "setting": "[7]; [15]", "result": "< 0.005", "unit": "µM"}, {"measurement": "EC50", "setting": "[7]; U-937", "result": 0.294, "unit": "µM"}, {"measurement": "EC50", "setting": "[8]", "result": 0.059, "unit": "µM"}, {"measurement": "JAK2 activity", "setting": "JAK2", "result": "weaker effect"}, {"measurement": "EC50", "setting": "[9]; [15]", "result": 0.06, "unit": "µM"}, {"measurement": "EC50", "setting": "[9]; U-937", "result": 0.27, "unit": "µM"}, {"measurement": "IC50", "setting": "[9]; U-937, read-out: IC50 IP-10", "result": 0.25, "unit": "µM"}, {"measurement": "EC50", "setting": "[10]", "result": 0.714, "unit": "µM"}, {"measurement": "IC50", "setting": "[11]", "result": 0.18, "unit": "µM"}, {"measurement": "STAT1 phosphorylation levels", "setting": "[12]", "result": "significantly reduced"}, {"measurement": "maximum non-toxic concentration", "setting": "U937 cells", "result": 1, "unit": "µM"}, {"measurement": "protection of mice from lethal influenza infection", "setting": "[13]", "result": "protecting mice from lethal influenza infection"}, {"measurement": "phosphorylation level of ERK", "setting": "[14]", "result": "promoted"}]}]}
